The values below are quoted from earlier work in patent US20150297310A1, “METHODS FOR SELECTING A TREATMENT FOR CANCER” (priority 2014, published 2015).

The subject of this series is AB1-HA tumor. The note with it: AB1-HA tumor model, CTX treatment at Day 9.

For `O=P1(N(CCCl)CCCl)NCCCO1` (stereo not shown) [CTX, Cyclophosphamide], the cure rate is 75%.
